Marks after values point to notes of the source that are not given here.
Assay: Measurement of LogP values by HPLC on reversed phase columns (EEC directive 79/831 Annex V.A8)
Assay type: physicochemical
Procedure, shortened: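 Following EEC directive 79/831 Annex V.A8, lipophilicity was derived from retention on reversed-phase HPLC columns. Separate values are given per diastereoisomer, and UV lambda-max (200–400 nm) was read at the peak signals.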

| SMILES | LogP | LogP [a] | LogP [b] |
| --- | --- | --- | --- |
| COc1ccc(CNc2nsc(C(=O)N(C3CC3)C(C)c3ccccc3C(F)(F)F)c2Cl)cc1 (stereo not drawn) [I-949] | 4.83[a] |  |  |
| COc1ccc(CNc2nsc(C(=O)NCc3cn(C4CCCC4)nc3C)c2Cl)cc1 [I-1339] | 3.23[a] |  |  |
| COc1ccc(CNc2nsc(C(=O)NCc3ccncc3C)c2Cl)cc1 [I-1314] | 1.52[a] |  |  |
| Nc1nsc(C(=O)NCCc2ccccc2Cl)c1Cl [I-895] | 2.41[a] |  |  |
| COc1ccc(CNc2nsc(C(=O)NC(C)c3nccs3)c2Cl)cc1 (stereo not drawn) [I-1317] | 2.82[a] |  |  |
| COc1ccc(CNC(=O)c2snc(N)c2C)cn1 [I-136] | 0.96[a] |  |  |
| C[C@H](NC(=O)c1snc(NCc2ccccc2)c1Cl)C1CCCCC1 [I-040] | 4.74[a] |  |  |
| Cc1cc(C)c(CN(C(=O)c2snc(N)c2Cl)C2CC2)cc1C [I-151] | 3.39[a] |  |  |
| O=C(NCc1ccccc1F)c1snc(Nc2ccc(F)cc2)c1Cl [I-059] | 3.68[a] |  |  |
| COc1ccc(CNc2nsc(C(=O)NCC3(C)CCC(C)CC3)c2Cl)cc1 (stereo not drawn) [I-825] | 4.84[a] |  |  |
| COc1ccc(CNc2nsc(C(=O)NC3CC34CCCCC4)c2Cl)cc1 (stereo not drawn) [I-1548] | 4.39[a] |  |  |
| O=C(NCc1c(F)cc(F)cc1F)c1snc(N=S2CCCC2)c1Cl [II-044] |  | 1.66^[a] |  |
| Nc1nsc(C(=O)NCC2CCOC2)c1Cl (stereo not drawn) [I-011] | 0.73[a] |  |  |
| O=C(NCc1ccccc1F)c1snc(NC2CC2)c1Cl [I-057] | 2.66[a] |  |  |
| Nc1nsc(C(=O)N(Cc2ccc(Cl)cc2Cl)C2CC2)c1Cl [I-209] | 3.37[a] |  |  |
| COc1ccc(CNc2nsc(C(=O)NC(C)c3ccc(Br)cc3)c2Cl)cc1 (stereo not drawn) [I-1273] | 4.23[a] |  |  |
| CCC(=O)Nc1nsc(C(=O)NCc2ccc(F)cc2OC)c1Cl [I-815] | 2.10[a] |  |  |
| COc1c(F)ccc(CNC(=O)c2snc(N)c2Cl)c1F [I-464] | 2.12[a] |  |  |
| Nc1nsc(C(=O)NCC2CCCOC2)c1Cl (stereo not drawn) [I-010] | 1.07[a] |  |  |
| COc1ccc(CNc2nsc(C(=O)OC(C)C)c2Cl)cc1 [E-VII-004] |  | 4.36^[a] |  |
| Nc1nsc(C(=O)N(Cc2ccc(F)cc2F)C2CC2)c1Cl [I-053] | 2.62[a] |  |  |
| Nc1nsc(C(=O)NCC2(Br)CCCCC2)c1F [I-1358] | 2.56[a] |  |  |
| CC(c1cc(Cl)cc(Cl)c1)N(C(=O)c1snc(N)c1Cl)C1CC1 (stereo not drawn) [I-952] | 3.70[a] |  |  |
| O=C(NCC1CCCCC1)c1snc(N=S(c2ccccc2)c2ccccc2)c1Cl [II-092] |  | 4.77^[a] |  |

| SMILES | LogP | LogP [a] | LogP [b] |
| --- | --- | --- | --- |
| CC(NC(=O)c1snc(Cl)c1Cl)C1CCCO1 (stereo not drawn) [E-II-032] |  | 2.72 | 2.69 |
| CCC(C)C(C)N(C(=O)c1cc(N(Cc2ccccc2)Cc2ccccc2)ns1)C1CC1 (stereo not drawn) [I-938] | 5.97[a] |  |  |
| COc1ccc(Nc2nsc(C(=O)NCc3ccccc3F)c2Cl)cc1 [I-060] | 3.46[a] |  |  |
| COc1ccc(CNc2nsc(C(=O)N(Cc3cc(F)ccc3F)C3CC3)c2Cl)cc1 [I-987] | 4.15[a] |  |  |
| CCC(C)C(C)N(C(=O)c1snc(NCc2ccc(OC)cc2)c1Cl)C1CC1 (stereo not drawn) [I-894] | 4.85[a] |  |  |
| O=C(NC1CCCC1c1ccccc1)c1snc(NC(=O)C2CC2)c1Cl (stereo not drawn) [I-297] | 2.86[a] |  |  |
| COc1ccc(CNc2cc(C(=O)O)sn2)cc1 [E-VIII-016] |  | 1.87^[a] |  |
| CC(=O)Nc1nsc(C(=O)NCC2CCCCC2)c1Cl [I-167] | 2.14[a] |  |  |
| CC1(C)CC(CNC(=O)c2snc(N)c2Cl)C1 [I-243] | 2.49[a] |  |  |
| COc1cccc(CNC(=O)c2snc(N)c2Cl)c1F [I-325] | 1.91[a] |  |  |
| CC1CCC(C)(CNC(=O)c2snc(N)c2Cl)CC1 (stereo not drawn) [I-835] | 3.17[a] |  |  |
| COc1ccc(CNc2nsc(C(=O)N(Cc3ccccc3C(C)C)C3CC3)c2Cl)cc1 [I-871] | 4.71[a] |  |  |
| Nc1nsc(C(=O)NCc2cc(F)ccc2F)c1Cl [I-015] | 1.88[a] |  |  |
| O=C(NCc1ccc(F)cc1F)c1cc(NC(=O)C(F)(F)F)ns1 [I-398] | 2.58[a] |  |  |
| Nc1nsc(C(=S)NCc2c(F)cc(F)cc2F)c1Cl [I-1015] | 2.86[a] |  |  |
| COc1ccc(CNc2nsc(C(=O)NC(C)c3ccc(C(C)C)cc3)c2Cl)cc1 (stereo not drawn) [I-1207] | 4.69[a] |  |  |
| Nc1cc(C(=O)NCc2ccc(Cl)cc2F)sn1 [I-179] | 1.82[a] |  |  |
| COc1ccc(CNc2nsc(C(=O)N(C3CC3)C(C)c3ccc(Cl)cc3Cl)c2Cl)cc1 (stereo not drawn) [I-931] | 5.22[a] |  |  |
| Cc1ccc(F)c(CN(C(=O)c2cc(N(Cc3ccccc3)Cc3ccccc3)ns2)C2CC2)c1 [I-990] | 5.56[a] |  |  |
| COc1ccc(CNc2nsc(C(=O)NCc3ccc(OC)c(C(F)(F)F)c3)c2Cl)cc1 [I-1321] | 3.85[a] |  |  |
| COc1ccc(CNc2nsc(C(=O)NC3CCOCC3C)c2Cl)cc1 (stereo not drawn) [I-1336] | 2.80[a] |  |  |
| Nc1nsc(C(=O)NCCc2ncc(C(F)(F)F)cc2Cl)c1Br [I-964] | 2.55[a] |  |  |
| CC(C)N(C(=O)c1snc(NC(=O)C(C)(C)C)c1Cl)C(C)C [I-974] | 2.80[a] |  |  |
| O=C(c1cc(NCc2ccccc2)ns1)N(Cc1cc(Cl)ccc1F)C1CC1 [I-1000] | 4.06[a] |  |  |

| SMILES | LogP | LogP [a] | LogP [b] |
| --- | --- | --- | --- |
| O=C(NC1CCCC2CCCCC21)c1snc(N=CN2CCCC2)c1Cl (stereo not drawn) [II-037] |  | 3.83^[a] |  |
| CON(C(=O)c1snc(Cl)c1Cl)C(C)C1CCCCC1 (stereo not drawn) [E-II-028] |  | 5.27 | 5.09 |
| Cc1ccc(NC(=O)c2snc(N)c2Cl)c(C)c1 [I-923] | 2.44[a] |  |  |
| Nc1nsc(C(=O)NCc2ccc(C(F)F)cc2)c1Cl [I-133] | 1.91[a] |  |  |
| O=C(NCc1ccc(F)cc1F)c1snc(NC(=O)C(F)(F)F)c1Cl [I-280] | 2.64[a] |  |  |
| COc1ccc(CNc2nsc(C(=O)NC(C)c3ccncc3)c2Cl)cc1 (stereo not drawn) [I-1189] | 1.54[a] |  |  |
| COc1ccc(CNc2nsc(C(=O)NC(C)c3cccc4ccccc34)c2Cl)cc1 (stereo not drawn) [I-1275] | 4.32[a] |  |  |
| CCc1cccc(C)c1CN(C(=O)c1snc(NCc2ccc(OC)cc2)c1Cl)C1CC1 [I-898] | 5.17[a] |  |  |
| Nc1nsc(C(=O)NCC2(F)CCCCC2)c1Br [I-828] | 2.15[a] |  |  |
| Nc1nsc(C(=O)NC2(C3CCCCC3)CC2)c1Cl [I-143] | 2.82[a] |  |  |
| Nc1nsc(C(=O)NC2CCCCC2)c1-c1ccc(F)cc1 [I-334] | 2.66[a] |  |  |
| CNC(=O)c1snc(N)c1Cl [I-884] | 0.32[a] |  |  |
| CC1(C)CC(CNC(=O)c2snc(N)c2Br)C1 [I-842] | 2.60[a] |  |  |
| COc1ccc(CNc2nsc(C(=O)NC3CC(C(F)(F)F)CC(C(F)(F)F)C3)c2Cl)cc1 (stereo not drawn) [I-1218] | 4.30[a] |  |  |
| COc1ccc(CNC(=O)c2snc(N)c2C)cc1 [I-049] | 1.42[a] |  |  |
| O=C(NCc1ncc(C(F)(F)F)cc1Cl)c1snc(N(Cc2ccccc2)Cc2ccccc2)c1Br [I-200] | 6.06[a] |  |  |
| N#Cc1ccc(CNC(=O)c2snc(NC(=O)C(F)F)c2Cl)cc1 [I-813] | 1.68[a] |  |  |
| Cc1ccc(NC(=O)c2cc(N(Cc3ccccc3)Cc3ccccc3)ns2)cc1Cl [I-906] | 5.68[a] |  |  |
| Nc1nsc(C(=O)NCC2CCCCO2)c1Cl (stereo not drawn) [I-014] | 1.47[a] |  |  |
| COc1cc(F)ccc1CNC(=O)c1snc(N)c1Cl [I-782] | 2.02[a] |  |  |
| Nc1cc(C(=O)N(Cc2cc(Cl)ccc2Br)C2CC2)sn1 [I-1001] | 2.84[a] |  |  |
| C[C@H](NC(=O)c1snc(NC(=O)c2ccccc2)c1Cl)C1CCCCC1 [I-091] | 3.64[a] |  |  |
| COc1ccc(CNc2nsc(C(=O)N(Cc3c(Cl)cccc3Cl)C3CC3)c2Cl)cc1 [I-929] | 4.80[a] |  |  |
| COc1ccc(CNc2nsc(C(=O)NCc3ncccc3OC)c2Cl)cc1 [I-1271] | 2.70[a] |  |  |

| SMILES | LogP | LogP [a] | LogP [b] |
| --- | --- | --- | --- |
| O=C(NCc1ccc(Cl)cc1)c1snc(N(Cc2ccccc2)Cc2ccccc2)c1-c1ccc(F)cc1 [I-321] | 5.72[a] |  |  |
| Nc1nsc(C(=O)NCc2cc(F)c(F)c(F)c2)c1Cl [I-131] | 2.13[a] |  |  |
| C[C@@H]1CCCC[C@H]1NC(=O)c1snc(N)c1Br (relative stereo) [I-838] | 2.34[a] |  |  |
| Cn1cc(CNC(=O)c2snc(N)c2Cl)cn1 [I-033] | 0.59[a] |  |  |
| COc1ccc(CNc2nsc(C(=O)Nc3cccc4c3C(C)CC4(C)C)c2Cl)cc1 (stereo not drawn) [I-880] | 5.42[a] |  |  |
| Nc1nsc(C(=O)NCC2CCCCC2C(F)(F)F)c1Cl (stereo not drawn) [I-1567] | 2.69[a] |  |  |
| CS(=O)(=O)N(c1nsc(C(=O)NCc2ccccc2F)c1Cl)S(C)(=O)=O [I-185] | 2.80[a] |  |  |
| COc1ccc(CNc2nsc(C(=O)NCc3cncc(OC)c3)c2Cl)cc1 [I-1342] | 1.89[a] |  |  |
| COc1ccc(CNc2nsc(C(=O)NC3CCCCCC3)c2Cl)cc1 [I-1245] | 4.27[a] |  |  |
| COc1ccc(CNc2nsc(C(=O)NC3(c4ccccc4Cl)CC3)c2Cl)cc1 [I-1327] | 4.24[a] |  |  |
| Nc1nsc(C(=O)NCc2cc(F)cc(F)c2F)c1Cl [I-130] | 2.03[a] |  |  |
| O=C(NC(c1ccccc1)C1CCCCC1)c1snc(Cl)c1Cl (stereo not drawn) [E-II-031] |  | 5.19 | 5.05 |
| COc1ccc(CNc2nsc(C(=O)NC3CCC3)c2Cl)cc1 [I-1195] | 3.15[a] |  |  |
| COc1ccc(CNc2nsc(C(=O)NCc3ccc(OC(F)(F)F)cc3)c2Cl)cc1 [I-1242] | 4.15[a] |  |  |
| O=C(NCc1ccccc1F)c1cc(N(Cc2ccccc2)Cc2ccccc2)ns1 [I-311] | 4.38[a] |  |  |
| Nc1cc(C(=O)N(Cc2ccc(Cl)cc2Cl)C2CC2)sn1 [I-967] | 2.90[a] |  |  |
| CC(=O)N(C(C)=O)c1nsc(C(=O)N[C@@H](C)C2CCCCC2)c1Cl [I-094] | 3.73[a] |  |  |
| CCOC(=O)c1snc(N(Cc2ccccc2)Cc2ccccc2)c1Cl [E-VII-013] |  | 5.73^[a] |  |
| COc1ccc(CNc2cc(C(=O)OC(C)C)sn2)cc1 [E-VII-070] |  | 3.63^[a] |  |
| CC(=O)Nc1nsc(C(=O)NCc2ccc(Cl)cc2)c1Cl [I-570] | 2.03[a] |  |  |
| CC(=O)Nc1nsc(C(=O)NCc2ccc(C#N)cc2)c1Cl [I-847] | 1.24[a] |  |  |
| Nc1nsc(C(=O)NCc2ccc(Cl)nc2)c1Cl [I-122] | 1.31[a] |  |  |
| C=CCONC(=O)c1snc(NCc2ccc(OC)cc2)c1Cl [I-1353] | 2.62[a] |  |  |
| CCC(NC(=O)c1snc(NCc2ccc(OC)cc2)c1Cl)c1cn(CC)nc1C (stereo not drawn) [I-1202] | 3.02[a] |  |  |
